Literature values, collected in patent US7892838B2, “Method for the in vivo modification of the synthesis activity of a metabolite by means of the modification of a gene the activity of which is not the original activity” (Institut Pasteur, priority 2003, dated 2011).

Tested on: HIV (human immunodeficiency virus)

SMILES	inhibition of the replication of HIV
Nc1ncnc2c1ncn2[C@H]1CC[C@@H](CO)O1 [ddA, 2′,3′-dideoxyadenosine]	effectively inhibit the replication of HIV
OC[C@@H]1CC[C@H](n2cnc3c(O)ncnc32)O1 [ddI, 2′,3′-dideoxyinosine]	effectively inhibit the replication of HIV
